Assay results from patent US9486422B2, “Small molecule inhibitors of Mcl-1 and the uses of thereof” (THE REGENTS OF THE UNIVERSITY OF MICHIGAN, priority 2011, dated 2016).

How the values were obtained:
Mcl-1 [1] = biological target: T1, Mcl-1 (Homo sapiens, UniProt Q07820); details: cited from earlier work
Target sequence in this assay (Q07820 whole entry): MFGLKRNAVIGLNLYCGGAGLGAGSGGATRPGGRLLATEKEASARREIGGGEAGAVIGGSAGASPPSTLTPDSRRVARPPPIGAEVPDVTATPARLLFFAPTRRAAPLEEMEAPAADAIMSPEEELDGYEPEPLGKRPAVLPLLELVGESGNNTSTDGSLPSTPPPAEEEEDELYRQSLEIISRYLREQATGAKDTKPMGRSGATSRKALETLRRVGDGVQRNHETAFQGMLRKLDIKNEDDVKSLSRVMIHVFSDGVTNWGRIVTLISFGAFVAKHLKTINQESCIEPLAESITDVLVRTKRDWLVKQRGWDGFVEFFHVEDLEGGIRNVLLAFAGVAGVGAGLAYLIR

Mcl-1 [2] = biological target: T1, Mcl-1; experiment: FP-based binding assay, Mcl-1; details: competitive FP
Target sequence in this assay (Q07820 171-327): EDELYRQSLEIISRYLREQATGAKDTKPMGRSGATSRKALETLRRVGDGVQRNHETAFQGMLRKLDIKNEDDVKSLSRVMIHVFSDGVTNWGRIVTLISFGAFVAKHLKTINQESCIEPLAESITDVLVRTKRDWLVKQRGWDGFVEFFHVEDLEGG

A1/Bfl-1 = biological target: T2, A1/Bfl-1 (Homo sapiens, UniProt Q16548); experiment: FP-based binding assay, A1/Bfl-1; details: competitive FP, FAM-BID 1 nM, protein 4 nM; read-out: A1/Bfl-1 Ki ± SD
T2 sequence (Q16548 1-151): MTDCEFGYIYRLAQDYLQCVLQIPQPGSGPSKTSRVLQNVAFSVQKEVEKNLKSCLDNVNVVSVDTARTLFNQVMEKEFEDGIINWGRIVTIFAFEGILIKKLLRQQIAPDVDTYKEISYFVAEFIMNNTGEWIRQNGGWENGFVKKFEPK

Bcl-w = biological target: T3, Bcl-w (Homo sapiens, UniProt Q92843); experiment: FP-based binding assay, Bcl-w; details: competitive FP, FAM-BID 2 nM, protein 40 nM; read-out: Bcl-w Ki ± SD
T3 sequence (Q92843 1-155): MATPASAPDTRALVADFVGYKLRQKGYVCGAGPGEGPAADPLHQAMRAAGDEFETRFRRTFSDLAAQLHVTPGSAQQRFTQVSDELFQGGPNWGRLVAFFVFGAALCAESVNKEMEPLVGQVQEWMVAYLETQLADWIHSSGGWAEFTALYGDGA

Bcl-2 = biological target: T4, Bcl-2 (Homo sapiens, UniProt P10415); experiment: FP-based binding assay, Bcl-2; details: competitive FP, Flu-BID 2 nM, protein 60 nM; read-out: Bcl-2 Ki ± SD
T4 construct: His-tagged proteins containing; fused on or other part: A 16-residue segment of the flexible loop of Bcl-xL (BCL2L1, Q07817; given as residues 35 to 50) set into the Bcl-2 loop region; His tag with TEV site from the pHis-TEV vector
T4 sequence (P10415 with tags, fused parts or gaps with the stated changes): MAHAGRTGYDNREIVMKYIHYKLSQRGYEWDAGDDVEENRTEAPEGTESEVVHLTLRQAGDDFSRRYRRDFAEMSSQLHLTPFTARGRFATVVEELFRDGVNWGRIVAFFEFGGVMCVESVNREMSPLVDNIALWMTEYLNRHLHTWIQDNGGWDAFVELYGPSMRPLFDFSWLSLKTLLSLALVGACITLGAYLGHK

Bcl-xL = Bcl-xL (Homo sapiens, UniProt Q07817, DEL45-85); experiment: FP-based binding assay, Bcl-xL; details: competitive FP, FAM-BID 2 nM, protein 50 nM; read-out: Bcl-xL Ki ± SD
Chain of Bcl-xL (Q07817 other isoform, or with tags, fused parts or gaps DEL45-85): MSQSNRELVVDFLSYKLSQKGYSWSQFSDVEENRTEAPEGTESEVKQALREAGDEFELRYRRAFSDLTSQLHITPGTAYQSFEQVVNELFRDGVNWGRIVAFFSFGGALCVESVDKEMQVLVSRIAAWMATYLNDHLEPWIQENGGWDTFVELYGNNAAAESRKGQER

[3] = biological target: T5, cellular Mcl-1 protein (2LMP cell lysate) (Homo sapiens, UniProt Q07820); experiment: Biotin-streptavidin pull-down with biotin-labeled Noxa BH3 peptide; format: binding
T5 construct: endogenous in cells; host or cells: 2LMP (subclone of MDA-MB-231) cell lysate
T5 sequence (Q07820 whole entry): as the sequence (Q07820 whole entry) above
Description: Human breast cancer 2LMP cells, a subclone of the MDA-MB-231 cell line, were lysed in CHAPS buffer (10 mM HEPES (pH 7.4), 2.5 mM EDTA, 150 mM NaCl, 1.0% CHAP). Pre-cleared cell lysates were incubated with different concentrations of tested compounds, followed by incubation with biotinylated Noxa BH3 peptide (residues 18-43) and streptavidin-agarose beads to pull-down Mcl-1 protein bound to Noxa peptide. Beads were washed with CHAPS buffer, and Mcl-1 protein was eluted by boiling in SDS-PAGE sample buffer and analyzed by Western blotting using Mcl-1 antibody (Santa Cruz). DMSO alone was used as a control for nonspecific pull-down.

| SMILES | binding to Mcl-1, result in words (Mcl-1 [1]) | IC50 (Mcl-1 [2]; Flu-BID 2 nM, Mcl-1 90 nM, read-out: Mcl-1 IC50 ± SD) [µM] | Ki (Mcl-1 [2]; Ki calculated from IC50, read-out: Mcl-1 Ki ± SD) [µM] | Ki (A1/Bfl-1) [µM] | Ki (Bcl-w) [µM] | Ki (Bcl-2) [µM] | Ki (Bcl-xL) [µM] | disruption of BL-Noxa/cellular Mcl-1 interaction, result in words [3] |
| --- | --- | --- | --- | --- | --- | --- | --- | --- |
| CN(C)CC[C@H](CSc1ccccc1)Nc1ccc(S(=O)(=O)NC(=O)c2ccc(N3CCN(Cc4ccccc4-c4ccc(Cl)cc4)CC3)cc2)cc1[N+](=O)[O-] [ABT-737] | fails to bind to Mcl-1 | – | – | – | – | – | – | – |
| O=C(O)CSc1cc(NS(=O)(=O)c2ccc(Br)cc2)ccc1O [Compound 22, 2-((5-(4-Bromophenylsulfonamido)-2-hydroxyphenyl)thio)acetic acid] | – | > 800 | > 200 | > 140 | > 90 | > 200 | > 130 | – |
| O=C(O)CSc1cc(NS(=O)(=O)c2cccs2)c2ccccc2c1O [Compound 1, 2-((1-Hydroxy-4-(thiophene-2-sulfonamido)naphthalen-2-yl)thio)acetic acid] | – | – | – | 6.14 ± 1 | 37.5 ± 7.96 | – | – | effectively disrupted |
